Measurements published in PMC6112376, “Comprehensive Analyses and Prioritization of Tox21 10K Chemicals Affecting Mitochondrial Function by in-Depth Mechanistic Studies” (Environmental Health Perspectives, 2018).
Where two headings read alike, the source gives them in different places.

How the values were obtained:
[1] = test system: isolated rat liver mitochondria; assay: Oxygen consumption, Clark-type oxygen electrode; format: biochemical; conditions: for I-ADP, % of control (O2 consumption rate): glutamate/malate driven state 3 respiration; for I-ADP, % of control (O2 consumption rate) / I-sub, % of control (O2 consumption rate) / II-ADP, % of control (O2 consumption rate) / II-sub, % of control (O2 consumption rate): isolated rat liver mitochondria; for I-sub, % of control (O2 consumption rate): glutamate/malate driven state 4 respiration; for II-ADP, % of control (O2 consumption rate): succinate-driven state 3 respiration; for II-sub, % of control (O2 consumption rate): succinate-driven state 4 respiration; for Potential Mechanism: mitochondrial respiration in isolated rat liver mitochondria, Clark type oxygen electrode, over tested concentrations
[2] = test system: HepG2 cells; conditions: cited from earlier work; for IC50: read-out: MMP assays IC50 (µM) qHTS-HepG2
[3] = test system: HepG2 cells; assay: cells; conditions: Homo sapiens; for IC50: HepG2, read-out: MMP assays IC50 (µM) HepG2; for Emax: HepG2, read-out: MMP assays efficacy (%) HepG2
[4] = test system: Caenorhabditis elegans strain PE255; assay: In vivo C. elegans ATP status assay; conditions: for minimal effective concentration: Caenorhabditis elegans, read-out: LEC LUM: lowest effect concentration for luminescence, a measure of nematode ATP content
[5] = test system: rat primary hepatocytes; assay: MMP assay in rat primary hepatocytes; conditions: for IC50: Rattus norvegicus, Hepatocyte, read-out: MMP assays IC50 (µM) Rat Hepatocytes; for MMP assays efficacy (%) Rat Hepatocytes: mean ± SD of three experiments
[6] = test system: Caenorhabditis elegans (Bristol N2); assay: C. elegans larval development and growth assay; conditions: for minimal effective concentration: Caenorhabditis elegans, read-out: LEC EXT: lowest effect concentration for extinction, a measure of nematode size

SMILES: Cc1cc(Cc2cc(C)cc(C(C)(C)C)c2O)c(O)c(C(C)(C)C)c1
- I-ADP, % of control (O2 consumption rate) ([1]; 20 µM): 103 (50.8) % of control
- I-sub, % of control (O2 consumption rate) ([1]; 20 µM): 116 (18.6) % of control
- II-ADP, % of control (O2 consumption rate) ([1]; 20 µM): 101 (78.4) % of control
- II-sub, % of control (O2 consumption rate) ([1]; 20 µM): 103 (31.4) % of control
- I-ADP, % of control (O2 consumption rate) ([1]; 100 µM): 100 (28.6) % of control
- I-sub, % of control (O2 consumption rate) ([1]; 100 µM): 244 (29.2) % of control
- II-ADP, % of control (O2 consumption rate) ([1]; 100 µM): 91 (33.1) % of control
- II-sub, % of control (O2 consumption rate) ([1]; 100 µM): 184 (27.2) % of control
- Potential Mechanism [1]: Uncoupler
- MMP assays efficacy (%) qHTS-HepG2 [2]: -96±2%
- IC50 [2]: 1.35 ± 0.26 µM
- IC50 [3]: 2 µM
- Emax [3]: 97%
- LUM: mean difference in luminescence (ATP content) relative to plate controls ([4]; 0.5 µM): -0.1638
- LUM: mean difference in luminescence (ATP content) relative to plate controls ([4]; 1 µM): -0.2926
- LUM: mean difference in luminescence (ATP content) relative to plate controls ([4]; 5 µM): -0.4173
- LUM: mean difference in luminescence (ATP content) relative to plate controls ([4]; 10 µM): -0.05227
- LUM: mean difference in luminescence (ATP content) relative to plate controls ([4]; 25 µM): 0.3804
- LUM: mean difference in luminescence (ATP content) relative to plate controls ([4]; 50 µM): 0.9583
- LUM: mean difference in luminescence (ATP content) relative to plate controls ([4]; 75 µM): 0.4391
- LUM: mean difference in luminescence (ATP content) relative to plate controls ([4]; 100 µM): 0.9663
- minimal effective concentration [4]: 50 µM
- IC50 [5]: 3.71 ± 0.47 µM
- MMP assays efficacy (%) Rat Hepatocytes [5]: -125±63%
- EXT: mean difference in nematode size relative to plate controls ([6]; 0.5 µM): 0.1192
- EXT: mean difference in nematode size relative to plate controls ([6]; 1 µM): 0.1294
- EXT: mean difference in nematode size relative to plate controls ([6]; 5 µM): 0.8511
- EXT: mean difference in nematode size relative to plate controls ([6]; 10 µM): 1.077
- EXT: mean difference in nematode size relative to plate controls ([6]; 25 µM): 1.41
- EXT: mean difference in nematode size relative to plate controls ([6]; 50 µM): 2.096
- EXT: mean difference in nematode size relative to plate controls ([6]; 75 µM): 2.103
- EXT: mean difference in nematode size relative to plate controls ([6]; 100 µM): 2.175
- minimal effective concentration [6]: 5 µM

SMILES: CC(C)[C@@H]1NC(=O)[C@H](C)OC(=O)[C@@H](C(C)C)NC(=O)[C@@H](C(C)C)OC(=O)[C@H](C(C)C)NC(=O)[C@H](C)OC(=O)[C@@H](C(C)C)NC(=O)[C@@H](C(C)C)OC(=O)[C@H](C(C)C)NC(=O)[C@H](C)OC(=O)[C@@H](C(C)C)NC(=O)[C@@H](C(C)C)OC1=O [Valinomycin]
- LUM: mean difference in luminescence (ATP content) relative to plate controls ([4]; 0.5 µM): -0.05222
- LUM: mean difference in luminescence (ATP content) relative to plate controls ([4]; 1 µM): -0.06335
- LUM: mean difference in luminescence (ATP content) relative to plate controls ([4]; 5 µM): 0.1958
- LUM: mean difference in luminescence (ATP content) relative to plate controls ([4]; 10 µM): 0.3328
- LUM: mean difference in luminescence (ATP content) relative to plate controls ([4]; 25 µM): 1.023
- LUM: mean difference in luminescence (ATP content) relative to plate controls ([4]; 50 µM): 0.6115
- LUM: mean difference in luminescence (ATP content) relative to plate controls ([4]; 75 µM): 0.5181
- LUM: mean difference in luminescence (ATP content) relative to plate controls ([4]; 100 µM): 0.5717
- minimal effective concentration [4]: 25 µM
- EXT: mean difference in nematode size relative to plate controls ([6]; 0.5 µM): 0.09961
- EXT: mean difference in nematode size relative to plate controls ([6]; 1 µM): 0.01293
- EXT: mean difference in nematode size relative to plate controls ([6]; 5 µM): -0.07954
- EXT: mean difference in nematode size relative to plate controls ([6]; 10 µM): -0.01187
- EXT: mean difference in nematode size relative to plate controls ([6]; 25 µM): 0.0497
- EXT: mean difference in nematode size relative to plate controls ([6]; 50 µM): 0.3415
- EXT: mean difference in nematode size relative to plate controls ([6]; 75 µM): 0.411
- EXT: mean difference in nematode size relative to plate controls ([6]; 100 µM): 0.3807
- minimal effective concentration [6]: 50 µM

SMILES: O=C1CCC(N2C(=O)c3ccccc3C2=O)C(=O)N1 (centres unmarked) [Thalidomide]
- LUM: mean difference in luminescence (ATP content) relative to plate controls ([4]; 0.5 µM): 0.03143
- LUM: mean difference in luminescence (ATP content) relative to plate controls ([4]; 1 µM): 0.01645
- LUM: mean difference in luminescence (ATP content) relative to plate controls ([4]; 5 µM): 0.01511
- LUM: mean difference in luminescence (ATP content) relative to plate controls ([4]; 10 µM): 0.04635
- LUM: mean difference in luminescence (ATP content) relative to plate controls ([4]; 25 µM): 0.07311
- LUM: mean difference in luminescence (ATP content) relative to plate controls ([4]; 50 µM): -0.2127
- LUM: mean difference in luminescence (ATP content) relative to plate controls ([4]; 75 µM): 0.4289
- LUM: mean difference in luminescence (ATP content) relative to plate controls ([4]; 100 µM): 0.7958
- minimal effective concentration [4]: 75 µM
- EXT: mean difference in nematode size relative to plate controls ([6]; 0.5 µM): 0.09319
- EXT: mean difference in nematode size relative to plate controls ([6]; 1 µM): -0.00358
- EXT: mean difference in nematode size relative to plate controls ([6]; 5 µM): 0.07925
- EXT: mean difference in nematode size relative to plate controls ([6]; 10 µM): 0.0474
- EXT: mean difference in nematode size relative to plate controls ([6]; 25 µM): 0.0694
- EXT: mean difference in nematode size relative to plate controls ([6]; 50 µM): 0.4966
- EXT: mean difference in nematode size relative to plate controls ([6]; 75 µM): 0.9805
- EXT: mean difference in nematode size relative to plate controls ([6]; 100 µM): 0.9456
- minimal effective concentration [6]: 50 µM

SMILES: CCc1cc(Cc2cc(CC)cc(C(C)(C)C)c2O)c(O)c(C(C)(C)C)c1
- I-ADP, % of control (O2 consumption rate) ([1]; 20 µM): 96 (47.4) % of control
- I-sub, % of control (O2 consumption rate) ([1]; 20 µM): 105 (16.9) % of control
- II-ADP, % of control (O2 consumption rate) ([1]; 20 µM): 100 (77.8) % of control
- II-sub, % of control (O2 consumption rate) ([1]; 20 µM): 97 (29.7) % of control
- I-ADP, % of control (O2 consumption rate) ([1]; 100 µM): 121 (34.8) % of control
- I-sub, % of control (O2 consumption rate) ([1]; 100 µM): 175 (20.9) % of control
- II-ADP, % of control (O2 consumption rate) ([1]; 100 µM): 98 (35.6) % of control
- II-sub, % of control (O2 consumption rate) ([1]; 100 µM): 134 (19.8) % of control
- Potential Mechanism [1]: Uncoupler
- MMP assays efficacy (%) qHTS-HepG2 [2]: -111±18%
- IC50 [2]: 1.22 ± 0.73 µM
- IC50 [3]: 2 µM
- Emax [3]: 90%
- LUM: mean difference in luminescence (ATP content) relative to plate controls ([4]; 0.5 µM): -0.0103
- LUM: mean difference in luminescence (ATP content) relative to plate controls ([4]; 1 µM): -0.09559
- LUM: mean difference in luminescence (ATP content) relative to plate controls ([4]; 5 µM): -0.6519
- LUM: mean difference in luminescence (ATP content) relative to plate controls ([4]; 10 µM): -0.6136
- LUM: mean difference in luminescence (ATP content) relative to plate controls ([4]; 25 µM): -0.3378
- LUM: mean difference in luminescence (ATP content) relative to plate controls ([4]; 50 µM): -0.154
- LUM: mean difference in luminescence (ATP content) relative to plate controls ([4]; 75 µM): 0.1094
- LUM: mean difference in luminescence (ATP content) relative to plate controls ([4]; 100 µM): 0.04601
- IC50 [5]: 5.01 ± 4.35 µM
- MMP assays efficacy (%) Rat Hepatocytes [5]: -78±36%
- EXT: mean difference in nematode size relative to plate controls ([6]; 0.5 µM): 0.1174
- EXT: mean difference in nematode size relative to plate controls ([6]; 1 µM): 0.117
- EXT: mean difference in nematode size relative to plate controls ([6]; 5 µM): 0.5074
- EXT: mean difference in nematode size relative to plate controls ([6]; 10 µM): 0.7525
- EXT: mean difference in nematode size relative to plate controls ([6]; 25 µM): 0.8303
- EXT: mean difference in nematode size relative to plate controls ([6]; 50 µM): 1.425
- EXT: mean difference in nematode size relative to plate controls ([6]; 75 µM): 1.246
- EXT: mean difference in nematode size relative to plate controls ([6]; 100 µM): 1.387
- minimal effective concentration [6]: 5 µM
